The data set is described as follows: Toxicity in Artemia salina. It is filed as organism-based. The note with it: in vivo, read-out: LD50 (the source's name).

Converted amounts (≈) assume the structure as drawn.

Turning to `CC(=O)OC[C@@H](C)C1=C(O)C(=O)[C@@]2(C)C/C=C(\C)CC/C=C(\C)CC[C@H](O)/C(C)=C/C[C@H]12` [FUSAPROLIFERIN], the LC50 amounted to 0.4 µg/mL (≈ 0.9 µM).

Source of the values: ChEMBL document CHEMBL1151676, “Structure and absolute stereochemistry of fusaproliferin, a toxic metabolite from Fusarium proliferatum” (J Nat Prod, 1996).
